The record followed here is ChEMBL document CHEMBL1144829, “2-Arylbenzoxazoles as novel cholesteryl ester transfer protein inhibitors: optimization via array synthesis” (Bioorg Med Chem Lett, 2008).

The target in assay [1] is T1, Cholesteryl ester transfer protein (Homo sapiens, UniProt P11597).
T1 sequence (P11597 whole entry): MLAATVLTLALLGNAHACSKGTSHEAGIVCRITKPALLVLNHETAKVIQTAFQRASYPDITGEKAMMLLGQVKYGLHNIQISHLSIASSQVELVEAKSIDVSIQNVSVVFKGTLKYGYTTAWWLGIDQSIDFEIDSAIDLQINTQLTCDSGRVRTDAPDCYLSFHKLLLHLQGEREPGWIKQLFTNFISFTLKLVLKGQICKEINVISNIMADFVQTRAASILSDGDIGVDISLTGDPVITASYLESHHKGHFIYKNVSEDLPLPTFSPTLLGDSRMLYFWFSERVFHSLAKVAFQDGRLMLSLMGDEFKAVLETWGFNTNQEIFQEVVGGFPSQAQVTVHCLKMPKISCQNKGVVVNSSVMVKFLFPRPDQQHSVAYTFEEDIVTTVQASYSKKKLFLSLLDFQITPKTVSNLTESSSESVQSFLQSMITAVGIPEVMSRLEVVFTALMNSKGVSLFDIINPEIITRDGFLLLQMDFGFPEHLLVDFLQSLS
Put plainly: Inhibition of human CETP by scintillation proximity assay. On the technique in general: SPA uses beads or plates that emit light when radiolabelled molecules are held near them.

In assay [2] the target is T1, Cholesteryl ester transfer protein. As to the kind of experiment: Inhibition of CETP in human whole plasma.

`Cc1ccccc1OCC(=O)Nc1ccc(-c2nc3cc(C#N)cc(Cl)c3o2)cc1`: the IC50 (in general, the concentration that gives 50% inhibition) in assay [1] amounted to 52 nM; in assay [2], 2500 nM.

As for `Cc1cc(C)c2oc(-c3ccc(NC(=O)COc4ccc(F)cc4)cc3)nc2c1`, the IC50 in assay [1] was determined as 7300 nM; in assay [2], 31000 nM. For `Cc1cc(C)c2oc(-c3ccc(NC(=O)COc4ccc(Cl)c(C)c4C)cc3)nc2c1`, the results for the IC50 in assay [1] and in assay [2] were 40 nM and 1700 nM, respectively. As for `Cc1ccccc1OCC(=O)Nc1ccc(-c2nc3cc(Cl)cc([N+](=O)[O-])c3o2)cc1`, the values for the 50% inhibitory concentration (IC50) in assay [1] and in assay [2] were 49 nM and 18000 nM, respectively.

For `COC(=O)c1cccc2nc(-c3ccc(NC(=O)COc4ccccc4C)cc3)oc12`, the IC50 in assay [1] came to 3500 nM; in assay [2], 80000 nM. In the same order, the values of `Cc1ccccc1OCC(=O)Nc1ccc(-c2nc3cc(Cl)cc(Cl)c3o2)cc1` are 88 nM and 11000 nM. For the compound `Cc1c(Cl)ccc(OCC(=O)Nc2ccc(-c3nc4cc(C#N)ccc4o3)cc2)c1C`, the concentration for half-maximal inhibition (IC50) stood at 10 nM in assay [1] and 910 nM in assay [2]. On to `Cc1ccc2oc(-c3ccc(NC(=O)COc4ccccc4C)cc3)nc2c1`, for which the IC50 was 1100 nM in assay [1] and 31000 nM in assay [2]. In the same order, the values of `Cc1cc(Br)ccc1OCC(=O)Nc1ccc(-c2nc3cc(C#N)ccc3o2)cc1` are 11 nM and 4300 nM.

As for `Cc1cc(C)c2oc(-c3ccc(NC(=O)COc4ccc(Cl)cc4)cc3)nc2c1`, the half-maximal inhibitory concentration (IC50) in assay [1] amounted to 380 nM; in assay [2] it was 20000 nM. On to `Cc1ccccc1OCC(=O)Nc1ccc(-c2nc3cc(C(F)(F)F)cc(C(F)(F)F)c3o2)cc1`, for which the IC50 amounted to 92 nM in assay [1] and 9100 nM in assay [2]. For the compound `Cc1ccccc1OCC(=O)Nc1ccc(-c2nc3cc(Br)ccc3o2)cc1`, the 50% inhibitory concentration (IC50) in assay [1] worked out at 440 nM; in assay [2], 28000 nM. For the compound `CC(=O)c1ccc2oc(-c3ccc(NC(=O)COc4ccccc4C)cc3)nc2c1`, the half-maximal inhibitory concentration (IC50) in assay [1] was 1200 nM; in assay [2] it was 18000 nM.

`Cc1cc(C)c2oc(-c3ccc(NC(=O)COc4cccc(F)c4)cc3)nc2c1`: the IC50 in assay [1] was found to be 1100 nM; in assay [2] it was 51000 nM. In the case of `Cc1cc(C)c2oc(-c3ccc(NC(=O)COc4ccc(F)cc4C)cc3)nc2c1`, the IC50 in assay [1] is 23 nM; in assay [2] it was 4900 nM. With `Cc1cc(C)c2oc(-c3ccc(NC(=O)COc4ccccc4C)cc3)nc2c1`, the concentration for half-maximal inhibition (IC50) in assay [1] came out at 280 nM; in assay [2], 8900 nM.

Turning to `Cc1ccccc1OCC(=O)Nc1ccc(-c2nc3cc(OC(F)(F)F)ccc3o2)cc1`, the concentration for half-maximal inhibition (IC50) in assay [1] came out at 11000 nM; in assay [2] it was 71000 nM. For `Cc1ccccc1OCC(=O)Nc1ccc(-c2nc3cc(Cl)cc(Br)c3o2)cc1` the same measures were 97 nM and 26000 nM. For `Cc1cc(C)c2oc(-c3ccc(NC(=O)COc4cccc(C(C)C)c4)cc3)nc2c1` the same measures were 900 nM and 67000 nM.

For `Cc1cc(C)c2oc(-c3ccc(NC(=O)COc4ccc(Cl)c(C(F)(F)F)c4)cc3)nc2c1`, the figures for the IC50 in assay [1] and in assay [2] were 120 nM and 4900 nM, respectively.

In the case of `Cc1ccc(OCC(=O)Nc2ccc(-c3nc4cc(C)cc(C)c4o3)cc2)c(C)c1`, the 50% inhibitory concentration (IC50) in assay [1] turned out to be 140 nM; in assay [2] it was 4500 nM. For `CC(=O)c1cc(C)cc2nc(-c3ccc(NC(=O)COc4ccccc4C)cc3)oc12` the same measures were 240 nM and 27000 nM.

In the case of `Cc1cc(C)c2oc(-c3ccc(NC(=O)COc4ccc(C)c5c4CCC5)cc3)nc2c1`, the IC50 in assay [1] turned out to be 85 nM; in assay [2], 3500 nM.

As for `Cc1cc(C)c2oc(-c3ccc(NC(=O)COc4ccc(Cl)c5c4CCC5)cc3)nc2c1`, the IC50 came out at 56 nM in assay [1] and 2500 nM in assay [2]. For `Cc1ccccc1OCC(=O)Nc1ccc(-c2nc3cc(CO)ccc3o2)cc1` the same measures were 1300 nM and 27000 nM. Consider `Cc1ccccc1OCC(=O)Nc1ccc(-c2nc3cc(C#N)ccc3o2)cc1`, for which the IC50 came to 57 nM in assay [1] and 3300 nM in assay [2]. Take `Cc1cc(C)c2oc(-c3ccc(NC(=O)COc4ccc(Cl)c(Cl)c4)cc3)nc2c1`: the 50% inhibitory concentration (IC50) in assay [1] is 200 nM; in assay [2] it was 13000 nM. For `Cc1cc(C)c2oc(-c3ccc(NC(=O)COc4cccc(Cl)c4)cc3)nc2c1`, the concentration for half-maximal inhibition (IC50) is 1300 nM in assay [1] and 11000 nM in assay [2]. In the case of `Cc1ccccc1OCC(=O)Nc1ccc(-c2nc3cc(Cl)ccc3o2)cc1`, the figures for the concentration for half-maximal inhibition (IC50) in assay [1] and in assay [2] were 470 nM and 21000 nM, respectively. For `Cc1ccccc1OCC(=O)Nc1ccc(-c2nc3cc([N+](=O)[O-])ccc3o2)cc1`, the concentration for half-maximal inhibition (IC50) in assay [1] was 120 nM; in assay [2] it was 18000 nM.

For the compound `COC(=O)c1c(Cl)ccc(OCC(=O)Nc2ccc(-c3nc4cc(C)cc(C)c4o3)cc2)c1C`, the results for the IC50 in assay [1] and in assay [2] were 42 nM and 2800 nM, respectively. For `Cc1cccc(OCC(=O)Nc2ccc(-c3nc4cc(C)cc(C)c4o3)cc2)c1` the same measures were 690 nM and 18000 nM. `Cc1cc(C)c2oc(-c3ccc(NC(=O)COc4cccc(C(F)(F)F)c4)cc3)nc2c1`: the IC50 in assay [1] is over 10000 nM; in assay [2] it was 32000 nM. Consider `Cc1cc(C)c2oc(-c3ccc(NC(=O)COc4ccccc4C(F)(F)F)cc3)nc2c1`, for which the half-maximal inhibitory concentration (IC50) in assay [1] was determined as 1900 nM; in assay [2], 91000 nM.

Consider `COC(=O)c1c(Cl)ccc(OCC(=O)Nc2ccc(-c3nc4cc(C#N)ccc4o3)cc2)c1C`, for which the IC50 in assay [1] was determined as 18 nM; in assay [2], 1300 nM. For `Cc1ccccc1OCC(=O)Nc1ccc(-c2nc3cc(C(F)(F)F)ccc3o2)cc1` the same measures were 590 nM and 51000 nM. Regarding `Cc1cc(C)c2oc(-c3ccc(NC(=O)COc4ccc(Cl)cc4C)cc3)nc2c1`, the half-maximal inhibitory concentration (IC50) in assay [1] came out at 96 nM; in assay [2], 2700 nM. Regarding `N#Cc1ccc2oc(-c3ccc(NC(=O)COc4ccc(Cl)c5c4CCC5)cc3)nc2c1`, the IC50 in assay [1] stood at 15 nM; in assay [2], 3200 nM.

Take `Cc1cc(C)c2oc(-c3ccc(NC(=O)COc4ccccc4C(C)C)cc3)nc2c1`: the IC50 in assay [1] is over 10000 nM. For `Cc1cc(C)c2oc(-c3ccc(NC(=O)COc4cccc(OC(F)(F)F)c4)cc3)nc2c1`, the concentration for half-maximal inhibition (IC50) in assay [1] came to 3600 nM; in assay [2], 61000 nM. Take `Cc1ccccc1OCC(=O)Nc1ccc(-c2nc3cccc(C)c3o2)cc1`: the results for the IC50 in assay [1] and in assay [2] were 1700 nM and 100000 nM, respectively.

On to `Cc1ccc(OCC(=O)Nc2ccc(-c3nc4cc(C)cc(C)c4o3)cc2)cc1`, for which the IC50 in assay [1] amounted to 240 nM; in assay [2], 26000 nM.

As to `N#Cc1ccc2oc(-c3ccc(NC(=O)COc4ccc(Cl)c(C(F)(F)F)c4)cc3)nc2c1`, the concentration for half-maximal inhibition (IC50) in assay [1] is 18 nM; in assay [2] it was 4300 nM. In the same order, the values of `Cc1cc(C)c2oc(-c3ccc(NC(=O)COc4ccc(Br)cc4C)cc3)nc2c1` are 31 nM and 3200 nM. For `Cc1cc(Cl)ccc1OCC(=O)Nc1ccc(-c2nc3cc(C#N)ccc3o2)cc1` the same measures were 85 nM and 40000 nM.

In assay [1], `Cc1ccccc1OCC(=O)Nc1ccc(-c2nc3ccc(F)cc3o2)cc1` returned a half-inhibitory concentration (IC50) of over 32000 nM. Still for that read-out and setting: under `COc1cccc(OCC(=O)Nc2ccc(-c3nc4cc(C)cc(C)c4o3)cc2)c1` stands over 10000 nM.
